Measurements: patent US20110262451A1, “MODULATORS OF ISOVALERYL-COENZYME A DEHYDROGENASE IN THE TREATMENT OF ACNE, OF SEBORRHOEIC DERMATITIS OR OF HYPERSEBORRHOEA” (priority 2008, published 2011)

Tests used:
[1] = system: isovaleryl-coenzyme A dehydrogenase; conditions: cited from earlier work
IVD = assay: qRT-PCR expression of IVD in rat sebaceous gland (epidermal split) after topical PPARgamma agonist; assay type: in vivo; conditions: topical 1% in acetone, T = 96 h, female FUZZY rat, relative induction versus carrier group, standardized to 18S
Description: (§1) • Strain: Ico: Hsd: FUZZY-fz • Gender: female • Age: 10 weeks Number per batch: 40 (8 animals per group) Treatment: Route of administration: topical • Compound/batch: PPARgamma agonist (rosiglitazone) • Doses: 1% • Carrier: acetone (001) • Duration 96 hours Method of evaluation: The animals are weighed at the beginning and at the end of the study. Skin biopsies are taken (6 samples of skin excised per rat) in order to analyze the expression of the genes (RNA extraction, reverse transcriptas and real-time PCR). The samples are stored overnight at 4° C. before incubation in 1M sodium bromide (NaBr) for 2 hours at 37° C. After incubation, the samples are separated into epidermis or dermis. The epidermal samples are stored at […] Under these conditions, the sebaceous glands are in the epidermal split. PCRs are carried out, beginning with the cDNAs originating from the epidermal splits containing sebaceous glands from control rats or rats treated with the PPARγ agonist: the mRNA is extracted using a column and quantified. The quality of the mRNAs is measured and is represented by the 18S/28S ratio. The results are standardized with respect to 18S expressed as relative induction versus untreated animals (carrier group). The statistical analysis is obtained using internal software based on a modified Monte Carlo statistical analysis.

PPARγ = assay: qRT-PCR expression of PPARγ in rat sebaceous gland (epidermal split) after topical PPARgamma agonist; assay type: in vivo; conditions: topical 1% in acetone, T = 96 h, female FUZZY rat, relative induction versus carrier group, standardized to 18S
Description: as §1

SMILES	Inhibition of isovaleryl-coenzyme A dehydrogenase [1]	Induction factor (IVD) (IVD)	Induction factor (PPARγ) (PPARγ)
C=C1C[C@@H]1C[C@H](N)C(=O)O [hypoglycine A]	inhibitor		
COCCOCOc1ccc2cc(C(=O)N(C)Cc3cccc(-c4ccc(CC5SC(=O)NC5=O)cc4)c3)ccc2c1 (stereo not drawn) [PPARgamma agonist, 6-(2-methoxyethoxy-methoxy)naphthalene-2-carboxylic acid [4′-(2,4-dioxothiazolidin-5-ylmethyl)biphenyl-3-ylmethyl]methyl-amide]		0.11	0.11
